Entries after “also recorded” stand apart in the source; their conditions may differ.
Experiments:
[1] = tested on: dermal fibroblasts from SSc patients; experiment: Expression of extracellular matrix proteins in dermal fibroblasts from SSc patients (real-time PCR, SirCol); type: cell-based, human
Description: Using fibroblasts isolated from skin biopsies from human systemic sclerosis (SSc) patients, an in vitro study was performed to evaluate whether the selective JNK inhibitor Compound JNKi-1 affects the expression of key extracellular matrix proteins.
Dermal fibroblasts from two SSc patients were treated for 24 hours (hr) with Compound JNKi-1 at concentrations from 0.1 μM to 10 μM (0.5% DMSO/99.5% cell culture media). To study the effect of Compound JNKi-1 on growth factor-induced collagen expression, recombinant transforming growth factor beta (TGF-β) (final concentration of 10 ng/mL) or platelet-derived growth factor-BB (PDGF-BB) (final concentration of 40 ng/mL) were added to cells 2 hr after the addition of JNK-inhibitor Compound JNKi-1 for 24 hr. The expression of collagen proteins was analyzed by SirCol assay. The messenger ribonucleic acid (mRNA) levels of extracellular proteins were measured by real-time polymerase chain reaction (PCR). The β-actin mRNA was used as internal control for the measurement of Collagen 1a1 mRNA using PCR. Fibroblast proliferation assay was performed in the presence or absence of 1 μM Compound JNKi-1 for 24 hr with the (3-(4,5-Dimethylthiazol-2-yl)-2,5-diphenyltetrazolium bromide) (MTT) assay.
The isolation of fibroblasts from human SSc patients and culture conditions used in this study have been previously described (Akhmetshina A, Dees C, Pileckyte M, Maurer B, Axmann R, Jüngel A, et al., Dual inhibition of c-abl and PDGF receptor signaling by dasatinib and nilotinib for the treatment of dermal fibrosis, FASEB J. 2008; 22(7):2214-22). Fibroblast cultures were obtained from skin biopsies of SSc patients. […] Biopsies from SSc patients were taken from involved skin of the forearm. After enzymatic digestion of the skin biopsies with Dispase II, fibroblasts were cultured in DMEM/F-12 containing 10% heat inactivated fetal calf serum (FCS), 100 U/mL penicillin, 100 μg/mL streptomycin, 2 mM L-glutamine and 2.5 μg/mL amphotericin B (all Invitrogen, Karlsruhe, Germany). Fibroblasts from passages 4-8 were used for the experiments. Data are expressed as mean±standard error of the mean (SEM).

[2] = tested on: phospho c-Jun (JNK) in human skin; experiment: UVB-irradiated human skin, phospho c-Jun IHC (3-way crossover study); type: in vivo; details: for median subjective score of phospho c-Jun: scale 0-4, placebo score 4
Description: The inhibitory effect of JNKi-1 on JNK was evaluated by assessing the status of the downstream substrate c-Jun (“cJun”) and phospho-c-Jun (or “p-cJun”) following UV irradiation of human skin.
The study was designed as randomized, double blind, placebo controlled, multiple dose, 3-way crossover study. Fifteen subjects were randomized to one of 3 sequences (5 subjects per sequence) as outlined below (see Table 3). There was a 7-day to 10 day washout period (no more than 14 days) from the last dose of the previous period to the first dose of the next period.
Fifteen patients enrolled, 14 completed the study and were included in the PD and PK analyses; all were healthy Caucasian male volunteers with Fitzpatrick skin type 2. The mean age was […] (20-49 years) and weight was 81 kg (64-96 kg). On the evening of Day-1, patients started fasting (at least an 8-hour fast prior to dosing on Day 1). Subjects received treatment A, B or C in Periods 1 to 3 under fasting conditions in an order based on the randomization scheme. Subjects went through the same procedures (except for the change in treatment) for all 3 periods, with the required washout in between periods. No strenuous activities were permitted during confinement. All efforts were made to keep activities, environment, food, procedures, and schedule between treatment periods identical.
On Day 6, subjects received a 2×MED UV dose to two sites on the buttock. One punch biopsy (approximately 3 mm in diameter by 0.8 mm in depth) was taken from one of the two UV irradiated sites. The punch biopsies were taken at 8 (±5 minutes) hours post UV exposure on Day 6.
Skin specimens from the biopsies was analyzed for phospho c-Jun and total c-Jun using IHC assay. Phospho c-Jun was quantified using a 0-4 subjective grading scales and/or objective scoring using an automated system, i.e. a laser scanning cytometer (LSC), evaluating the integrated intensity of staining measured optically.
Biopsies were analyzed following the procedures described below to evaluate phospho c-Jun and c-Jun expression using IHC assay. The method employed to assess JNK activation was a two antibody IHC assay that employed a primary antibody, directed against the target, and a secondary antibody conjugated with a chromogenic enzyme. Thus, the method was a two-step immunohistochemical assay designed to interrogate the target, c-Jun and phospho c-Jun. Any changes in JNK activity were measurable in the amounts of these target molecules, c-Jun and phospho c-Jun. The secondary antibody-reporter conjugate deposited a red color when incubated with the substrate reaction mix, thus marking the location of the primary antibody target complex. The red color was then recorded with standard bright-field illumination using a Nikon microscope. The microscope images were then photographed and electronic images were scored (blinded) by three independent and trained scorers using the following guidelines. A score of 0 indicated staining of 0-19% of the epithelial keratinocyte nuclei; a score of 1 indicated staining of 20-39% of the epithelial keratinocyte nuclei; a score of 2 indicated staining of 40-59% of the epithelial keratinocyte nuclei; a score of 3 indicated staining of 60-79% of the epithelial keratinocyte nuclei; and a score of 4 indicated staining of 80-100% of the epithelial keratinocyte nuclei. FIG. 21 depicts representative immunostaining for the respective scores.
For each tissue, a count of nuclei in the epithelial layer was obtained. All phospho c-Jun or c-Jun positive nuclei were counted as well as their integral (intensity). A score was calculated for each: score=(p-cJun or cJun positive nuclei×average Intensity)/Total nuclei.

[3] = 1 μM, 24 hr, compared to mock-treated fibroblasts

O[C@H]1CC[C@H](Nc2ncc3nc(Nc4c(F)cc(F)cc4F)n([C@H]4CCOC4)c3n2)CC1 [JNKi-1, 4-((9-((3S)-tetrahydro-3-furanyl)-8-((2,4,6-trifluorophenyl)amino)-9H-purin-2-yl)amino)-trans-cyclohexanol]
expression of extracellular matrix proteins (in words) ([1]; 0.1 μM to 10 μM, 24 hr): reduced expression; also recorded: dose-dependently reduced | reduction of col 1a1 mRNA level [1, 3]: 71±11% | reduction of col 1a2 mRNA level [1, 3]: 61±13% | reduction of fibronectin-1 mRNA level [1, 3]: 55±14% | reduction of collagen protein in the supernatant ([1]; 1 μM, compared to control): 21±7% | concentration at which maximal effects were observed ([1]; tested 0.1 μM to 10 μM, 24 hr): 1 µM | patients with reduced phospho c-Jun, subjective scoring ([2]; 75 mg QD x 6 days): 57% | patients with reduced phospho c-Jun, subjective scoring ([2]; 75 mg QD x 6 days, 2xMED UVB, biopsy 8 hours post UV): 8/14 | median subjective score of phospho c-Jun ([2]; 75 mg QD x 6 days): 3 | frequency of high phospho c-Jun subjective scores ([2]; 75 mg and 200 mg vs placebo): fewer subjects had high p-cJun scores; also recorded: fewer patients had high scores | phospho c-Jun by laser scanning cytometry (LSC) analysis ([2]; 75 mg or 200 mg): Decrease in phospho c-Jun was confirmed | odds ratio, phospho c-Jun scores 0, 1, 2 vs. scores 3, 4 (logistic regression) ([2]; 75 mg vs. placebo): 10.96 | patients with inhibited phospho c-Jun, subjective scoring ([2]; 200 mg QD x 6 days): 78% | patients with inhibited phospho c-Jun, subjective scoring ([2]; 200 mg QD x 6 days, 2xMED UVB, biopsy 8 hours post UV): 11/14 | median subjective score of phospho c-Jun ([2]; 200 mg QD x 6 days): 1 | odds ratio, phospho c-Jun scores 0, 1, 2 vs. scores 3, 4 (logistic regression) ([2]; 200 mg vs. placebo): 41.89 | elevation of phospho c-Jun induced by the UVB irradiation ([2]; oral, about 75 mg to about 200 mg, in a majority of patients): partially or completely inhibited | phospho c-Jun immunostaining, percentage of positive epithelial nuclei, Patient 15 ([2]; versus placebo): significantly decreased

Source: US8680076B2, “Methods of treatment, improvement and prevention using haloaryl substituted aminopurines” (Signal Pharmaceuticals, LLC, priority 2010, dated 2014)
